Experimental data as given in patent US20230413812A1, “SANITIZING COMPOSITIONS CONTAINING IONIC LIQUID” (CAGE BIO, INC., priority 2020, published 2023).

Legend:
Format in all cases: cell-based
[1] = test system: Escherichia coli (E. coli); test: Residual self-sanitizing activity on hard, non-porous glass surface per EPA Protocol 01-1A (manual wear cycles); details: in CGB-D-100 disinfectant; lowest concentration tested
Excerpt: The purpose of this study is to test residual self-sanitizing activity of CGB-D-100 disinfectant per EPA protocol 01-1A, “Residual Self-Sanitizing Activity of Dried Chemical Residues on Hard, Non-Porous Surfaces.”
The scope of this study is to evaluate residual self-sanitizing activity of CGB-D-100 disinfectant with three different concentrations of CG-101, and to compare it to a marketed disinfectant (Microban® 24). Glass surface (microscope slides) will be used as a non-porous surface. Sterile saline solution will be used as a negative control and Microban® 24 will be used as the positive control. The method will simulate contact and touches by incorporating wear or wiping of the test surface as well as reinoculations of the test and control surfaces over 24 hours. The EPA protocol requires the use of an automated abrasion tester to simulate wear from wiping the surface. For the purposes of this protocol, abrasion or wear were be performed manually using cotton wipes.
First, the glass slides will be washed with a non-medical soap and water followed by cleaning with 70% alcohol and allowed to air dry. […]
Test product, negative control, and positive control will be applied to replicate test surfaces according to the product's Directions for Use or until surface is completely wet. […] The temperature and humidity in the lab will be recorded. […]

E. coli = test: Self-sanitizing activity of CG-101 in water and aqueous Poloxamer 407 on a surface with dried inoculum, 5 min contact
Experimental: This study was conducted to test the residual self-sanitizing activity of samples containing 5% CG-101 in water, in 5% aqueous […], and in 10% aqueous Poloxamer 407. Parameters of the experiments are listed below:
• Water (Negative Control) • 5% CG-101 Aqueous Solution (Positive Control) • 5% CG-101 in 5% Poloxamer 407 Aqueous Solution • 5% CG-101 in 10% Poloxamer 407 Aqueous solution
• 10 μl of E. coli suspension was applied on the surface and dried over 30 min • 1 ml of each test sample and control was applied on the surface with a dry inoculum • Contact time of 5 min was used • Neutralization was performed immediately after the contact time • 100 μl from each solution was plated onto agar plates and transferred to incubator set at 37 C for 48 hr. • Bacterial growth was observed after 48 hr. In the incubator.

[2] = Antimicrobial efficacy time kill test (ASTM E2783-11, neutralization per E1054-08)
Experimental: The purpose of this study was to test antimicrobial efficacy of 1%, 3%, and 5% CG-101 disinfectant formulations.
The study was performed using the following standard protocols: • I. American Society for Testing and Materials. Standard Test Methods for Evaluation of
Inactivators of Antimicrobial Agents; Designation: E1054-08 (Reapproved 2013). West Conshohocken, PA. • II. American Society for Testing and Materials. Standard Test Method for Assessment of Antimicrobial Activity for Water Miscible Compounds Using a Time-Kill Procedure. Designation: E2783-11 (Reapproved 2016). West Conshohocken, PA.
Initial neutralization testing confirmed that the test material was adequately neutralized at all concentrations tested. The time kill procedure included triplicate testing and all plate counts were performed in duplicate
CG-101 was added to water to form mixtures of 1 wt %, 3 wt %, and 5 wt % of CG-101.

[3] = 1 wt % CG-101 in water, 1 minute
[4] = 1 wt % CG-101 in water, 5 minutes
[5] = 1 wt % CG-101 in water, at seconds
[6] = 3 wt % CG-101 in water, 1 minute
[7] = 3 wt % CG-101 in water, 5 minutes
[8] = 3 wt % CG-101 in water, at seconds
[9] = 5 wt % CG-101 in water, 1 minute
[10] = 5 wt % CG-101 in water, 5 minutes
[11] = 5 wt % CG-101 in water, at seconds

With Choline geranate [CG-101] the “concentration of CG-101 sufficient to kill all applied bacteria and to preserve the glass surface for 24 h” value [1] was 2%, the “bacterial growth on TSA plates” value (E. coli; 5% CG-101 in 5% aqueous Poloxamer 407, 48 hr incubation) was “No bacterial growth” and the “bacterial growth on TSA plates” value (E. coli; 5% CG-101 in 10% aqueous Poloxamer 407, 48 hr incubation) was “No bacterial growth”. For the same substance, the “bacterial growth on TSA plates” value (E. coli; 5% CG-101 in water (positive control of this study), 48 hr incubation) was “No bacterial growth”, the killing [2, 3] was 99.9% and the “log decrease in CFU” value [2, 3] was > 3 log. The killing [2, 4] was 99.9%, the “log decrease in CFU” value [2, 4] was > 3 log and the killing [2, 5] was 99.9%. For the same substance, the “log decrease in CFU” value [2, 5] was > 3 log, the killing [2, 6] was 99.9% and the “log decrease in CFU” value [2, 6] was > 3 log. For the same substance, the killing [2, 7] was 99.9%, the “log decrease in CFU” value [2, 7] was > 3 log and the killing [2, 8] was 99.9%. For the same substance, the “log decrease in CFU” value [2, 8] was > 3 log, the killing [2, 9] was 99.9% and the “log decrease in CFU” value [2, 9] was > 3 log. For the same substance, the killing [2, 10] was 99.9%, the “log decrease in CFU” value [2, 10] was > 3 log and the killing [2, 11] was 99.9%. The “log decrease in CFU” value [2, 11] was > 3 log.
